The text below walks through data of US20190117667A1, “ANTICANCER ACTIVITY OF PLATINUM(II) TETRASELENONE COMPLEXES” (King Fahd University of Petroleum and Minerals, priority 2017, published 2019).

Data set [1] is described as follows: Solubility in deuterated solvents for 195Pt NMR. It is filed as physicochemical. Particulars: for 195Pt NMR spectra. The protocol: The FTIR spectra of the ligands and their platinum(II) complexes were carried out on a Nicolet 6700 FTIR spectrophotometer using KBr pellets in the range between 4000 to 400 cm^−1. The ^1H, ^13C and ^77Se NMR spectra were recorded in DMSO-d6 on a Jeol JNM 500 NMR spectrophotometer operating at 500.01, 125.65 and 95.35 MHz respectively. The spectral conditions were; 32 K data points, 0.963 s acquisition time, 3.2 s pulse delay and a 5.75 μs pulse width for ^1H NMR, and 32 K data points, 0.963 s acquisition time, 2.0 s pulse delay and a 5.12 μs pulse width for ^13C NMR. The chemical shifts were measured relative to TMS. The ^77Se NMR chemical shifts were recorded relative to external reference (NaHSeO3 in D2O) at 1308.00 ppm, using 2.0 s pulse delay and using 0.311 s acquisition time. The ^195Pt NMR spectra were recorded in methanol-d4 using a Varian 400 MHz NMR spectrometer at 298 K. The spectra were referenced with respect to potassium tetrachloridoplatinate(II) in D2O at 0 ppm.
The ^195Pt NMR spectroscopy was also employed for thorough characterization of the prepared complexes, as the number of signals and their chemical shift in the ^195Pt NMR spectra provide efficient evidence about the purity and, also generally, the coordination environment of the metal. […]

Data set [2] has as its system human breast adenocarcinoma (MCF7) cells. As to the kind of experiment: MTT in vitro cytotoxicity assay, MCF7. Particulars: triplicate, tested up to 50 μM, read-out: In vitro cytotoxicity IC50 ± S.D., MCF7. It is filed as cell-based. The protocol: (§1) All the human cancer cell lines were purchased from European Collection of Cell Cultures (ECACC). The cells were cultivated according to the manufacturer's manuals and maintained in an atmosphere containing 5% CO2 in a humidified incubator at 37° C. The experimental procedure was performed according to the literature. See R. […], PLoS One, 2014, 9(9), e107373, incorporated herein by reference in its entirety. All the experiments were conducted in triplicate. The results were expressed as ICso values along with standard deviations (SD). The significance of the differences between the compared groups of results was assessed by the ANOVA analysis, with p<0.05 considered to be significant (QC Expert 3.2, Statistical software, TriloByte Ltd.). See QC Expert 3.2, Statistical software, TriloByte Ltd., Pardubice, Czech Republic. 2009, incorporated herein by reference in its entirety.

The test system of data set [3] is prostate carcinoma (22Rv1) cells. The experiment in a line: MTT in vitro cytotoxicity assay, 22Rv1. It is filed as cell-based, human. The following applies: for IC50: triplicate, tested up to 50 μM, read-out: In vitro cytotoxicity IC50 ± S.D., 22RvI. The protocol:
as §1

A short description of data set [4]: ESI-MS stability and interaction with L-cysteine and reduced glutathione. It is filed as physicochemical. Particulars: methanol:water (1:1, v/v), complex 10 μM, Cys 290 μM, GSH 6 μM, immediately vs 24 h after preparation. The protocol:
In order to describe the behavior of complexes in different media, i.e. to better understand their stability in protogenic media and interactions of the complexes with sulfur-containing biomolecules under physiological conditions, mass spectrometric experiments involving the interacting systems, containing the mixture of L-cysteine and reduced L-glutathione, were performed.
The electrospray-ionization mass spectrometry (ESI-MS) was used to perform the interaction experiments of the selected two cytotoxic platinum(II) complexes 4 and 5 using the ThermoLCQ Fleet Ion Trap mass spectrometer, in positive ionization mode. […] The measured solutions were injected into the mass spectrometer using the HPLC autosampler (Ultimate 3000, Dionex) in 10 μL spikes. The mass spectra were recorded in the range of 50-1400 m/z. […]
The stability in methanol:water (1:1, v/v) solutions as compared to the pure methanol and interactions of complexes in methanol:water (1:1, v/v)solutions containing the complexes 4 and 5 at the final concentrations of 10 μM and the physiological levels of L-cysteine (Cys) and L-glutathione (GSH), at 290, and 6 μM concentration, respectively, were measured by ESI+MS immediately after preparation and 24 h after preparation. […] The spectra measured immediately after preparation contained mostly the ionic species similar to those identified in reference methanol solutions. […]

In data set [5] the test system is ovarian carcinoma resistant to cisplatin (A2780R) cells. The experiment in a line: MTT in vitro cytotoxicity assay, A2780R. It is filed as cell-based, human. The following applies: triplicate, tested up to 50 μM, read-out: In vitro cytotoxicity IC50 ± S.D., A2780R. The protocol: as §1
In data set [6] the test system is human ovarian carcinoma A2780 cells. As to the kind of experiment: MTT in vitro cytotoxicity assay, A2780. It is filed as cell-based. Particulars: triplicate, tested up to 50 μM. The protocol:
as §1

Another data set deals with testicular cancer. The following applies: cited from earlier work.
The mark [7] stands for this setting: read-out: In vitro cytotoxicity IC50 ± S.D., A2780.

Values joined by “and” are separate entries in the source; they are usually repeats but may differ in a detail not shown here. Equal values may be shown once. Read-outs that look alike come from different tables or passages of the source.

For `NC(N)=[Se].NC(N)=[Se].NC(N)=[Se].NC(N)=[Se].[Cl-].[Cl-].[Pt+2]` [Complex 1], the “Solubility in methanol-d4 and deuterated N,N-dimethylformamide” value in data set [1] is reported as “insufficient solubility”.
Broadly, the IC50 is the midpoint of a concentration-inhibition curve. Regarding `CCCN1CCNC1=[Se].CCCN1CCNC1=[Se].CCCN1CCNC1=[Se].CCCN1CCNC1=[Se].[Cl-].[Cl-].[Pt+2]` [Complex 4], the 50% inhibitory concentration (IC50) in data set [2] was more than 50 µM; in data set [3], 46.2 ± 3.8 µM; in data set [5], more than 50 µM; in data set [6] (setting [7]) it was 44.7 µM and 30.8 µM. For the same compound, the “Cytotoxicity against 22Rv1 cells (in words)” value in data set [3] is listed as “some cytotoxicity”. Also, in data set [4], the “Ligand exchange reactions with L-cysteine and reduced glutathione” value is given as “relatively rapid”.
With `[Cl-].[Cl-].[Pt+2].[Se]=C1NCCCCN1.[Se]=C1NCCCCN1.[Se]=C1NCCCCN1.[Se]=C1NCCCCN1` [Complex 7], the IC50 in data set [2], in data set [3], in data set [5] and in data set [6] (setting [7]) was more than 50 µM in each case.
In the case of `[Cl-].[Cl-].[Pt+2].[Se]=C1NCCN1.[Se]=C1NCCN1.[Se]=C1NCCN1.[Se]=C1NCCN1` [Complex 2], the IC50 in data set [2], in data set [3], in data set [5] and in data set [6] (setting [7]) was more than 50 µM in each case. For the same compound, the “Solubility in methanol-d4 and deuterated N,N-dimethylformamide” value in data set [1] was “insufficient solubility”.
`CC(C)N1CCNC1=[Se].CC(C)N1CCNC1=[Se].CC(C)N1CCNC1=[Se].CC(C)N1CCNC1=[Se].[Cl-].[Cl-].[Pt+2]` [Complex 5, [Pt(N-isopropylimidazolidine-2-selenone)4]Cl2]: the IC50 is more than 50 µM in data set [2]; more than 50 µM in data set [3]; more than 50 µM in data set [5]; 30.8 µM in data set [6] (listed as 5, read-out: In vitro cytotoxicity IC50 ± S.D., A2780); 44.7 µM in data set [6] (setting [7]). In addition, the “Ligand exchange reactions with L-cysteine and reduced glutathione” value in data set [4] is “relatively rapid”.
As for `N.N.[Cl][Pt][Cl]` [Cisplatin], the “Cure rate in testicular cancer” value in the data set on testicular cancer (treatment of testicular cancer) is on record as “over 90%”. For the same compound, in the data set on testicular cancer (when tumors are discovered early), the “Cure rate in testicular cancer, tumors discovered early” value is given as approximately 100%.
For `CCN1CCNC1=[Se].CCN1CCNC1=[Se].CCN1CCNC1=[Se].CCN1CCNC1=[Se].[Cl-].[Cl-].[Pt+2]` [Complex 3, [Pt(N-ethylimidazolidine-2-selenone)4]Cl2], the IC50 in data set [2], in data set [3], in data set [5] and in data set [6] (setting [7]) was more than 50 µM in each case.
Regarding `[Cl-].[Cl-].[Pt+2].[Se]=C1NCCCN1.[Se]=C1NCCCN1.[Se]=C1NCCCN1.[Se]=C1NCCCN1` [Complex 6], the IC50 in data set [2], in data set [3], in data set [5] and in data set [6] (setting [7]) was more than 50 µM in each case.
